{
  "source": "patent US20250129109A1",
  "key": {"[1]": {"test_system": "stem cells from human exfoliated deciduous teeth (SHED1)", "assay": "Cell cytotoxic test, stem cells from human exfoliated deciduous teeth", "settings": "IC50 as silver concentration"}, "[2]": {"test_system": "human gingival fibroblast cells (HGF-1)", "assay": "Cell cytotoxic test, human gingival fibroblast cells", "settings": "HGF-1 cells; IC50 as silver concentration"}},
  "data": [
    {"compound": "C1N2CN3CN1CP(C2)C3.C1N2CN3CN1CP(C2)C3.[Ag+].[F-]", "note": "[SCF, [Ag(1,3,5-triaza-7-phosphaadamantane)2]F]", "values": [
      {"measurement": "IC50 against SHED1 (cell cytotoxicity)", "setting": "[1]", "result": "34.54±5.09", "unit": "ppm"},
      {"measurement": "IC50 against HGF-1 (cell cytotoxicity)", "setting": "[2]", "result": "43.98±12.80", "unit": "ppm"}
    ]}
  ]
}
